The results in this text go back to PubChem BioAssay (NCI).

Test systems include HL-60(TB) leukemia; MCF7 breast; OVCAR-5 ovarian; OVCAR-8 ovarian; RXF 393 renal; SF-268 CNS; SK-MEL-5 melanoma; SK-OV-3 ovarian; U251 CNS; UACC-62 melanoma.
Holding throughout (test): NCI tumour cell line growth inhibition, 48 h

Several values for one entry are separate records, joined by “and”; a condition that tells them apart may be missing. Identical values can stand only once.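 Each compound was tested at five concentrations against cells in 96-well plates for 48 hours. The concentration for 50% growth inhibition is given as GI50. The concentration for full growth arrest is given as TGI.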 A value given as a limit tells only on which side of the number the result lay.

As for `CC(C)(O)[C@H]1[C@@H]2OC(=O)[C@H]1[C@]1(O)C[C@H]3OC34C(=O)O[C@H]2[C@@]41C` (some centres undefined) (tested in a mixture with another compound), the TGI in the test on HL-60(TB) leukemia, in the test on MCF7 breast, with OVCAR-5 ovarian, in the test on OVCAR-8 ovarian, in the test on RXF 393 renal and in the test with SF-268 CNS was more than 100 µM throughout. In addition, the TGI in the test with SK-MEL-5 melanoma, with SK-OV-3 ovarian, with U251 CNS and in the test with UACC-62 melanoma was more than 100 µM throughout.

For `COC(=O)C#Cc1ccc([N+](=O)[O-])cc1`, the TGI in the test on HL-60(TB) leukemia turned out to be 4.32 µM; in the test on MCF7 breast, 9.04 µM; in the test with OVCAR-5 ovarian, 4.34 µM; in the test with OVCAR-8 ovarian it was 7.25 µM; in the test on RXF 393 renal it was 4.11 µM; in the test with SF-268 CNS, 14 µM. Further, the TGI with SK-MEL-5 melanoma amounted to 6.18 µM; with SK-OV-3 ovarian, 19 µM; with U251 CNS, 3.86 µM; with UACC-62 melanoma, 6.86 µM.

As to `Cc1cccc(N=C2c3cc([N+](=O)[O-])ccc3-c3c2cc([N+](=O)[O-])cc3[N+](=O)[O-])c1`, the GI50 with HL-60(TB) leukemia is 3.35 µM; with MCF7 breast, 6.27 µM; with OVCAR-5 ovarian it was 18.3 µM; with OVCAR-8 ovarian it was 5.88 µM; in the test on RXF 393 renal, 2.28 µM; with SF-268 CNS it was 6.33 µM. Moreover, the GI50 in the test on SK-MEL-5 melanoma is 5.44 µM; with SK-OV-3 ovarian it was more than 100 µM; in the test on U251 CNS, 2.57 µM; in the test with UACC-62 melanoma, 5.03 µM. The TGI with HL-60(TB) leukemia worked out at 13.1 µM; in the test on MCF7 breast, 28.2 µM; with OVCAR-5 ovarian it was 40.2 µM; in the test on OVCAR-8 ovarian, 94.1 µM; with RXF 393 renal it was 4.95 µM; in the test on SF-268 CNS it was 40.8 µM. Further, the TGI in the test on SK-MEL-5 melanoma is 17.9 µM; in the test with SK-OV-3 ovarian, more than 100 µM; with U251 CNS, 7.41 µM; in the test with UACC-62 melanoma, 20.2 µM.

Consider `O=C(O)CCC1CCC(c2cc(F)ccc2F)(S(=O)(=O)c2ccc(Cl)cc2)CC1` (centres undefined), for which the GI50 with HL-60(TB) leukemia was 31.3 µM and > 81 µM; in the test with MCF7 breast it was 29.2 µM and > 81.4 µM; in the test on OVCAR-5 ovarian, 92.2 µM and > 100 µM; in the test on OVCAR-8 ovarian, 74.8 µM and > 100 µM; in the test with RXF 393 renal it was 12.5 µM and 76.6 µM; in the test on SF-268 CNS, 48.3 µM and > 100 µM. The GI50 was 27.6 µM and > 100 µM in the test with SK-MEL-5 melanoma; 32.1 µM and > 100 µM in the test on SK-OV-3 ovarian; 32.7 µM and > 100 µM with U251 CNS; 28.2 µM and 97.1 µM in the test with UACC-62 melanoma. The TGI in the test with HL-60(TB) leukemia was more than 100 µM; in the test on MCF7 breast it was more than 100 µM; in the test with OVCAR-5 ovarian, more than 100 µM; with OVCAR-8 ovarian, more than 100 µM; with RXF 393 renal, 78.8 µM and > 100 µM; in the test on SF-268 CNS, more than 100 µM. Also, the TGI with SK-MEL-5 melanoma, in the test on SK-OV-3 ovarian, with U251 CNS and in the test on UACC-62 melanoma was more than 100 µM in each case.

`O=C1/C(=C/C(Cl)=C/c2ccccc2)SC(=S)N1CCc1ccc(O)cc1`: the GI50 in the test on HL-60(TB) leukemia is 1.5 µM; with MCF7 breast it was 1.85 µM; in the test with OVCAR-5 ovarian, 2.02 µM; in the test on OVCAR-8 ovarian, 0.596 µM; in the test on RXF 393 renal, 1.58 µM; in the test with SF-268 CNS it was 2.6 µM. Also, the GI50 in the test on SK-MEL-5 melanoma is 1.77 µM; with SK-OV-3 ovarian, 5.53 µM; in the test with U251 CNS, 1.23 µM; with UACC-62 melanoma, 1.33 µM. The TGI with HL-60(TB) leukemia is more than 100 µM; in the test with MCF7 breast it was 16.9 µM; in the test with OVCAR-5 ovarian, 3.91 µM; with OVCAR-8 ovarian it was 16.3 µM; in the test on RXF 393 renal, 3.2 µM; in the test with SF-268 CNS, 10.3 µM. Besides, the TGI with SK-MEL-5 melanoma is 3.31 µM; in the test on SK-OV-3 ovarian, more than 100 µM; with U251 CNS, 2.66 µM; with UACC-62 melanoma it was 3.04 µM.

As to `COc1ccc(F)cc1C(=O)c1cnc(NC2CCN(S(C)(=O)=O)CC2)nc1N`, the GI50 was 1.66 µM in the test with HL-60(TB) leukemia; 0.18 µM in the test with MCF7 breast; 1.4 µM in the test on OVCAR-5 ovarian; 3.95 µM with OVCAR-8 ovarian; 2.75 µM in the test on RXF 393 renal; 4.58 µM in the test on SF-268 CNS. Further, the GI50 is 3.12 µM in the test on SK-MEL-5 melanoma, 8.82 µM with SK-OV-3 ovarian, 1.07 µM in the test on U251 CNS and 2.75 µM in the test with UACC-62 melanoma. Moreover, the TGI was 18.1 µM in the test with HL-60(TB) leukemia; more than 25 µM in the test on MCF7 breast; more than 14.7 µM with OVCAR-5 ovarian; more than 21.6 µM in the test with OVCAR-8 ovarian; 6.58 µM with RXF 393 renal; 18.1 µM in the test on SF-268 CNS. In addition, the TGI in the test with SK-MEL-5 melanoma is more than 21.4 µM; with SK-OV-3 ovarian, more than 25 µM; with U251 CNS it was more than 19.6 µM; in the test on UACC-62 melanoma it was 8.95 µM.

`O=C(Nc1ccc(Br)c(Cl)c1)c1cc(F)ccc1O`: the GI50 was 0.97 µM in the test with HL-60(TB) leukemia; 0.883 µM with MCF7 breast; 1.71 µM in the test with OVCAR-5 ovarian; 1.21 µM with OVCAR-8 ovarian; 1.06 µM with RXF 393 renal; 0.996 µM in the test with SF-268 CNS. Also, the GI50 in the test with SK-MEL-5 melanoma is 0.358 µM; with SK-OV-3 ovarian, 0.633 µM; in the test with U251 CNS it was 0.768 µM; in the test with UACC-62 melanoma, 0.242 µM. In addition, the TGI in the test with HL-60(TB) leukemia was 2.83 µM; in the test with MCF7 breast, more than 50 µM; in the test on OVCAR-5 ovarian, more than 50 µM; with OVCAR-8 ovarian, more than 30.5 µM; with RXF 393 renal it was 3.97 µM; with SF-268 CNS, more than 33.6 µM. The TGI in the test with SK-MEL-5 melanoma is 1.05 µM; with SK-OV-3 ovarian it was 3.79 µM; with U251 CNS it was more than 50 µM; in the test on UACC-62 melanoma, 2.09 µM.

As for `CC[C@H](C)C(=O)O[C@H]1CCC=C2C=C[C@H](C)C(CCC3C[C@@H](O)CC(=O)O3)[C@H]21` (some centres undefined), the GI50 was 11.7 µM in the test on HL-60(TB) leukemia; 39.5 µM in the test with MCF7 breast; 20.8 µM in the test on OVCAR-5 ovarian; 3.78 µM in the test with OVCAR-8 ovarian; 3.65 µM in the test with RXF 393 renal; 1.94 µM in the test on SF-268 CNS. Also, the GI50 in the test on SK-MEL-5 melanoma is 3.78 µM; in the test with U251 CNS, 1.82 µM; with UACC-62 melanoma, 4.75 µM. In addition, the TGI in the test on HL-60(TB) leukemia was 52.9 µM; in the test with MCF7 breast, more than 100 µM; with OVCAR-5 ovarian, more than 100 µM; with OVCAR-8 ovarian, more than 100 µM; with RXF 393 renal, 24.4 µM; with SF-268 CNS it was more than 100 µM. Further, the TGI with SK-MEL-5 melanoma is 71.4 µM; in the test with SK-OV-3 ovarian, more than 100 µM; in the test on U251 CNS it was more than 100 µM; in the test on UACC-62 melanoma, 61.9 µM.
